Measurements as given in patent US20080038382A1 (priority 2004, published 2008).
Read-outs that look alike come from different tables or passages of the source.

Key:
[1] = test system: SARS-CoV; settings: background, cited sources; cited from earlier work
[2] = test system: SARS CoV; assay type: cell-based; settings: for mean number of plaques: 3 days incubation at 37° C., vero C1008 cells; for plaques as % of virus control: virus control = 100%
[3] = test system: RSV S2; assay type: cell-based; settings: 100 μg/ml

For `CCOC(=O)/C=C/[C@H](C[C@@H]1CCNC1=O)NC(=O)[C@@H](CC(=O)[C@@H](NC(=O)c1cc(C)on1)C(C)C)Cc1ccc(F)cc1` [AG7088], the “activity against SARS virus (reported in literature/news)” value [1] is given as “failed to inhibit virus”.

In the case of `Cc1cccc(C)c1OCC(=O)N[C@@H](Cc1ccccc1)[C@@H](O)C[C@H](Cc1ccccc1)NC(=O)[C@H](C(C)C)N1CCCNC1=O` [Lopinavir], the “activity against SARS virus (reported in literature/news)” value [1] is given as “partially active”.

In the case of `Cc1c(O)cccc1C(=O)N[C@@H](CSc1ccccc1)[C@H](O)CN1C[C@H]2CCCC[C@H]2C[C@H]1C(=O)NC(C)(C)C` [Nelfinavir], the “activity against SARS virus (reported in literature/news)” value [1] is listed as “partially active”.

In the case of `NC(=O)c1ncn([C@@H]2O[C@H](CO)[C@@H](O)[C@H]2O)n1` [Ribavirin], the “mean number of plaques” value ([2]; Ribavirin 10 μg/ml) is reported as “mean 114.75”, the “plaques as % of virus control” value ([2]; Ribavirin 10 μg/ml) is reported as “(97.5%)” and the “mean number of plaques” value ([2]; Ribavirin 100 μg/ml) is reported as “mean 87.25”. For the same compound, the “plaques as % of virus control” value ([2]; Ribavirin 100 μg/ml) was “(74.1%)”, the “plaque size compared with controls” value ([2]; higher concentrations (Ribavirin 100 μg/ml, PYN5C 200 μg/ml)) was “smaller than for the controls” and the “protection of the cells against RSV” value [3] was “did not protect”. For the same compound, the “activity against SARS virus (reported in literature/news)” value [1] was “appear to be efficacious”.

In the case of `CC1(C)[C@@H](O[C@H]2O[C@H](C(=O)O)[C@@H](O)[C@H](O)[C@H]2O[C@@H]2O[C@H](C(=O)O)[C@@H](O)[C@H](O)[C@H]2O)CC[C@]2(C)[C@H]3C(=O)C=C4[C@@H]5C[C@@](C)(C(=O)O)CC[C@]5(C)CC[C@@]4(C)[C@]3(C)CC[C@@H]12` [glycyrrhizin], the “activity against SARS virus (reported in literature/news)” value [1] is given as “appear to be efficacious”.
